These are literature values, as cited in US20080214562A1, “Chemical Compounds” (priority 2005, published 2008).

The subject of the series is T-tropic HIV. As to conditions: patients that are dual tropic or where only the T-tropic form of the virus is present.

As to `c1cc(CN2CCCNCCNCCCNCC2)ccc1CN1CCCNCCNCCCNCC1` [AMD-3100], the “T-tropic HIV viral load” value was “significantly reduce”.
